# According to patent US6843979B2, “4-haloethenylphenyl tropane:serotonin transporter imaging agents” (Emory University, priority 1999, dated 2005):
# Assays:
# [1] = tested on: SERT; assay: SPECT imaging in baboon; type: in vivo; settings: anesthetized baboon, 300-360 min
# Procedure: FIG. 7 is a graph showing time activity curves of [^123I]ZIENT in a baboon.
# The baboon was injected with 10 mCi of [^123I]ZIENT and serial images (128×128×64 matrix: pixel size=1.67×1.67 mm, slice, thickness=1.67 mm, voxel volume=4.66 mm^3) were acquired at 159 keV, in step and shoot mode at 10 min each for a total of 360 to 390 min and 32 to 35 acquisitions per experiment. Images were reconstructed using a ramp and a Butterworth filter (cutoff=0.65 cm-power factor=10). To identify brain regions, MRI scans of 1.5 mm contiguous slices were obtained with a 1.5 Tesla GE Signa device. Axial images were acquired using a spoiled GRASS (gradient recall acquisition in the steady state) sequence with TR=25 ms, TE=5 ms, NEX=2, matrix=256×192, field of view=16 cm. […] The uptake ratio of brainstem/cerebellum was 3.0:1 at 300-360 min.
# [2] = Tissue uptake of [123I]ZIENT in rats; settings: rat
# [3] = target: SERT sites (Macaca mulatta, UniProt Q9MYX0); assay: SPECT imaging and fluvoxamine chase study in rhesus monkey; settings: for Displacement of tracer by fluvoxamine (SPECT): fluvoxamine 5 mg i.v., midbrain / brainstem; for Brain uptake by SPECT: midbrain by 54 min, brainstem at 80-110 min
# Description: SPECT images were reconstructed as transaxial slices (3.2 mm) and attenuation corrected.
# [4] = target: rat brain SERT (Rattus norvegicus, UniProt P31652); assay: Regional brain uptake of [123I]ZIENT in rats with blocking agents
# [5] = 5 mg/kg i.v. 15 min prior, 60 min
# [6] = 60 min, Fluvoxamine 5 mg/kg i.v. 15 min prior
# [7] = 60 min, GBR 12909 5 mg/kg i.v. 15 min prior
# [8] = 60 min after i.v., listed as [^123]ZIENT
# Chain of SERT sites (Q9MYX0 whole entry): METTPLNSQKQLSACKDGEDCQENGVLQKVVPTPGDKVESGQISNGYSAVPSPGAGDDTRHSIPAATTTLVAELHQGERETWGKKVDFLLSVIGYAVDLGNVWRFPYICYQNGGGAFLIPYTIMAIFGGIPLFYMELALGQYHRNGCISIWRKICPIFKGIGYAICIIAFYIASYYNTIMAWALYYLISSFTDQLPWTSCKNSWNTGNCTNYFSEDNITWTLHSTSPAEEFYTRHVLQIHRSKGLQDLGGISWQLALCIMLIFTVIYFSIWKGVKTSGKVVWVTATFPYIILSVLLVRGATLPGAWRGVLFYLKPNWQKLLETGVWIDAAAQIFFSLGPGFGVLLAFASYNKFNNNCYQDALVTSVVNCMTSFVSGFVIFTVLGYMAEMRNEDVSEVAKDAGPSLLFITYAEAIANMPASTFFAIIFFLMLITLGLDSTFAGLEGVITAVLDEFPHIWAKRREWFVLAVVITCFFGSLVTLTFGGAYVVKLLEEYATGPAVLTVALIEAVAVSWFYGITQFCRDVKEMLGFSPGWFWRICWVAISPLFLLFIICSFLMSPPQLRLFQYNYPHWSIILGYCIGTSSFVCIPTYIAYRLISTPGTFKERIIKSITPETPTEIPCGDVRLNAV
# Chain of rat brain SERT (P31652 whole entry): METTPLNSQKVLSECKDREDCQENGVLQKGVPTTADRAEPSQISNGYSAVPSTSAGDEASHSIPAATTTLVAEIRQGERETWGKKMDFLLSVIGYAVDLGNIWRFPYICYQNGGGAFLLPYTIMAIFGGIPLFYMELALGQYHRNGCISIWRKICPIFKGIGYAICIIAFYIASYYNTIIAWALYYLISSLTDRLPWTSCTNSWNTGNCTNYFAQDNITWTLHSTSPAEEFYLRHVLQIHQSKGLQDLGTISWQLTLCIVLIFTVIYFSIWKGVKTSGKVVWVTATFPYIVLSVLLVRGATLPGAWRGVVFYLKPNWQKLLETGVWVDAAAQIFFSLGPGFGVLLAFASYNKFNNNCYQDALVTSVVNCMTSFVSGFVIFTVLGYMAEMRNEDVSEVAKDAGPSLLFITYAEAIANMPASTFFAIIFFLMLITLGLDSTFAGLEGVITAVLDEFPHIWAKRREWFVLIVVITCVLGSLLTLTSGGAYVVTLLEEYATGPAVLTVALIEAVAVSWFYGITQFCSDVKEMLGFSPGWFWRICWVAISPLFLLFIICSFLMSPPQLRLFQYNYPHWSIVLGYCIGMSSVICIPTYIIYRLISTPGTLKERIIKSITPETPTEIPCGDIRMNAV
smiles,measurement,setting,value
COC(=O)C1C2CCC(CC1c1ccc(C=C[123I])cc1)N2 (stereo not shown) [[^123I]ZIENT],Uptake ratio of brainstem/cerebellum,[1],3.0
same,"Tissue uptake, Blood",[2]; 5 min after i.v.,0.64 (0.52-0.86) percent dose per gram
same,"Tissue uptake, Heart",[2]; 5 min after i.v.,2.41 (2.36-2.47) percent dose per gram
same,"Tissue uptake, Kidney",[2]; 5 min after i.v.,2.35 (2.16-2.67) percent dose per gram
same,"Tissue uptake, Liver",[2]; 5 min after i.v.,0.99 (0.73-1.33) percent dose per gram
same,"Tissue uptake, Lung",[2]; 5 min after i.v.,9.71 (7.9-11.8) percent dose per gram
same,"Tissue uptake, Muscle",[2]; 5 min after i.v.,0.30 (0.15-0.44) percent dose per gram
same,"Tissue uptake, Spleen",[2]; 5 min after i.v.,3.79 (3.28-4.67) percent dose per gram
same,"Tissue uptake, Testis",[2]; 5 min after i.v.,0.22 (0.19-0.27) percent dose per gram
same,"Tissue uptake, Thyroid",[2]; 5 min after i.v.,0.11 (0.08-0.12) percent dose per gram
same,"Tissue uptake, Blood",[2]; 30 min after i.v.,0.46 (0.43-0.49) percent dose per gram
same,"Tissue uptake, Heart",[2]; 30 min after i.v.,0.52 (0.48-0.55) percent dose per gram
same,"Tissue uptake, Kidney",[2]; 30 min after i.v.,0.66 (0.64-0.70) percent dose per gram
same,"Tissue uptake, Liver",[2]; 30 min after i.v.,0.43 (0.38-0.51) percent dose per gram
same,"Tissue uptake, Lung",[2]; 30 min after i.v.,1.48 (1.35-1.66) percent dose per gram
same,"Tissue uptake, Muscle",[2]; 30 min after i.v.,0.29 (0.25-0.32) percent dose per gram
same,"Tissue uptake, Spleen",[2]; 30 min after i.v.,1.24 (1.03-1.50) percent dose per gram
same,"Tissue uptake, Testis",[2]; 30 min after i.v.,0.36 (0.30-0.47) percent dose per gram
same,"Tissue uptake, Thyroid",[2]; 30 min after i.v.,0.23 (0.19-0.29) percent dose per gram
same,"Tissue uptake, Blood",[2]; 60 min after i.v.,0.39 (0.23-0.42) percent dose per gram
same,"Tissue uptake, Heart",[2]; 60 min after i.v.,0.36 (0.15-0.40) percent dose per gram
same,"Tissue uptake, Kidney",[2]; 60 min after i.v.,0.44 (0.29-0.50) percent dose per gram
same,"Tissue uptake, Liver",[2]; 60 min after i.v.,0.28 (0.11-0.30) percent dose per gram
same,"Tissue uptake, Lung",[2]; 60 min after i.v.,1.27 (0.62-1.44) percent dose per gram
same,"Tissue uptake, Muscle",[2]; 60 min after i.v.,0.20 (0.11-0.22) percent dose per gram
same,"Tissue uptake, Spleen",[2]; 60 min after i.v.,0.82 (0.50-0.94) percent dose per gram
same,"Tissue uptake, Testis",[2]; 60 min after i.v.,0.29 (0.26-0.34) percent dose per gram
same,"Tissue uptake, Thyroid",[2]; 60 min after i.v.,0.33 (0.17-0.37) percent dose per gram
same,"Tissue uptake, Blood",[2]; 120 min after i.v.,0.33 (0.31-0.36) percent dose per gram
same,"Tissue uptake, Heart",[2]; 120 min after i.v.,0.20 (0.18-0.24) percent dose per gram
same,"Tissue uptake, Kidney",[2]; 120 min after i.v.,0.32 (0.29-0.35) percent dose per gram
same,"Tissue uptake, Liver",[2]; 120 min after i.v.,0.29 (0.23-0.41) percent dose per gram
same,"Tissue uptake, Lung",[2]; 120 min after i.v.,0.72 (0.61-0.78) percent dose per gram
same,"Tissue uptake, Muscle",[2]; 120 min after i.v.,0.16 (0.14-0.18) percent dose per gram
same,"Tissue uptake, Spleen",[2]; 120 min after i.v.,0.51 (0.44-0.55) percent dose per gram
same,"Tissue uptake, Testis",[2]; 120 min after i.v.,0.30 (0.26-0.33) percent dose per gram
same,"Tissue uptake, Thyroid",[2]; 120 min after i.v.,1.61 (0.82-2.31) percent dose per gram
same,Displacement of tracer by fluvoxamine (SPECT),[3],significant reduction of activity
same,Displacement of tracer by fluvoxamine (SPECT),[3]; listed as [^123I] ZIENT,significantly displaced
same,Brain uptake by SPECT,[3],regions of highest uptake
same,Brain uptake by SPECT,[3]; listed as [^123I] ZIENT,high
same,Effect of GBR 12909 (DAT ligand) on tracer uptake in striatum,[4]; [5],did not significantly block
same,Effect of NET blocking agent (reboxetine) on regional brain uptake of tracer,[4]; [5],little effect
same,Effect of fluvoxamine (SERT ligand) on tracer uptake in hypothalamus and striatum,[4]; [5],significantly blocked
same,Hypothal/(CB) ratio,[4]; [6],1.3
same,"Regional uptake, Brain",[4]; [6],0.27 (0.24 0-0.30) % dose/g
same,"Regional uptake, Cerebellum",[4]; [6],0.18 (0.16-0.20) % dose/g
same,"Regional uptake, Frontal Cortex",[4]; [6],0.26 (0.23-0.29) % dose/g
same,"Regional uptake, Hypothalamus",[4]; [6],0.23 (0.18-0.27) % dose/g
same,"Regional uptake, Striatum",[4]; [6],0.28 (0.24-0.32) % dose/g
same,Striatum/(CB) ratio,[4]; [6],1.6
same,Hypothal/(CB) ratio,[4]; [7],1.8
same,"Regional uptake, Brain",[4]; [7],0.39 (0.37-0.42) % dose/g
same,"Regional uptake, Cerebellum",[4]; [7],0.21 (0.18-0.26) % dose/g
same,"Regional uptake, Frontal Cortex",[4]; [7],0.43 (0.38-0.47) % dose/g
same,"Regional uptake, Hypothalamus",[4]; [7],0.38 (0.34-0.41) % dose/g
same,"Regional uptake, Striatum",[4]; [7],0.40 (0.37-0.42) % dose/g
same,Striatum/(CB) ratio,[4]; [7],1.9
same,Hypothal/(CB) ratio,[4]; 60 min after i.v.,2.7
same,"Regional uptake, Brain",[4]; 60 min after i.v.,0.61 (0.56-0.63) % dose/g
same,"Regional uptake, Cerebellum",[4]; 60 min after i.v.,0.29 (0.28-0.31) % dose/g
same,"Regional uptake, Frontal Cortex",[4]; 60 min after i.v.,0.70 (0.65-0.78) % dose/g
same,"Regional uptake, Hypothalamus",[4]; 60 min after i.v.,0.7 % dose/g
same,"Regional uptake, Striatum",[4]; 60 min after i.v.,0.60 (0.54-0.63) % dose/g
same,Striatum/(CB) ratio,[4]; 60 min after i.v.,2.1
same,Hypothal/(CB) ratio,"[4]; 60 min after i.v., listed as [^123I] ZIENT",3
same,Hypothal/(CB) ratio,[4]; [8],2.7
same,"Regional uptake, Hypothalamus",[4]; [8],0.77 (0.69-0.83) % dose/g
same,Hypothal/(CB) ratio,[4]; 120 min after i.v.,4.4
same,"Regional uptake, Brain",[4]; 120 min after i.v.,0.40 (0.32-0.50) % dose/g
same,"Regional uptake, Cerebellum",[4]; 120 min after i.v.,0.12 (0.11-0.28) % dose/g
same,"Regional uptake, Frontal Cortex",[4]; 120 min after i.v.,0.48 (0.42-0.53) % dose/g
same,"Regional uptake, Hypothalamus",[4]; 120 min after i.v.,0.53 (0.44-0.60) % dose/g
same,"Regional uptake, Striatum",[4]; 120 min after i.v.,0.46 (0.37-0.55) % dose/g
same,Striatum/(CB) ratio,[4]; 120 min after i.v.,3.8
same,Hypothal/(CB) ratio,"[4]; 120 min after i.v., listed as [^123I] ZIENT",5
same,Hypothal/(CB) ratio,"[4]; 120 min after i.v., listed as [^123]ZIENT",4.4
same,Prefrontal cortex to cerebellum ratio,[4]; 120 min post injection,2.9
same,Clearance from the hypothalamus,[4]; at 120 min compared to 60 min post injection,30%
